# In patent US8198419B2, “Glycorandomization and production of novel erythromycin analogs” (Wisconsin Alumni Research Foundation, priority 2001, dated 2012):
# Entries after “also recorded” stand apart in the source; their conditions may differ. Read-outs that look alike come from different tables or passages of the source.
# How the values were obtained:
# [1] = system: DNA; conditions: estimated; unit not given; cited from earlier work
# [2] = molecular target: T1, GtfE (Amycolatopsis orientalis, UniProt Q9AFC6); experiment: GtfE steady-state kinetics and transfer of NDP-glucose derivatives to heptapeptide aglycone; assay type: biochemical; conditions: for Km: NDP-sugar donor varied, acceptor vancomycin aglycone held at 1 mM; for Km / kcat: pH 9; for kcat: acceptor vancomycin aglycone 1 mM; for recognition / transfer of the sugar by GtfE: vancomycin and teicoplanin aglycone acceptors, HPLC and mass spectrometry; for catalytic efficiency relative to native substrate: vancomycin aglycone as acceptor
# T1 construct: made in house; host or cells: Escherichia coli
# T1 sequence (Q9AFC6 1-409): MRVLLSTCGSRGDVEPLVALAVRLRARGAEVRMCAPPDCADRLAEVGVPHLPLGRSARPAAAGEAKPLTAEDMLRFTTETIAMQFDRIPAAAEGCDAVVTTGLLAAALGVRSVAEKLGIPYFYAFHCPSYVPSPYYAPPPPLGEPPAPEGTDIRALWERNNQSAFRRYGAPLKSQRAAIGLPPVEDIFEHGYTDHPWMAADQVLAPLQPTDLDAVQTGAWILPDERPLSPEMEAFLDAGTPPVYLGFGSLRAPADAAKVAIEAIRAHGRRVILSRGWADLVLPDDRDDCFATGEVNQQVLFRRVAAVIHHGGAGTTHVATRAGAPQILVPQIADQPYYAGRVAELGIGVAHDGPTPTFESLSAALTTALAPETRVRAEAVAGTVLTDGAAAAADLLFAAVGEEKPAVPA
# Method: (The acceptor substrate, the vancomycin aglycone, was held constant at 1 mM in each experiment.)
# Biochemistry 2001; 40(15):4745-55; and Solenberg et al. Production of hybrid glycopeptide antibiotics in vitro and in Streptomyces toyocaensis. Chem Biol 1997; 4(3):195-202. Reactions were carried out and analyzed by HPLC as previously described. […] Each 100 μL reaction contained either 1 mM vancomycin aglycone or 0.5 mM teicoplanin aglycone. […] Reactions with GtfD also contained 2 mM UDP-L-4-epi-vancosamine. 50 μL time points were taken at 0 and 20 h, and quenched with 9 vol methanol. After centrifugation, the supernatants were dried and resuspended in water for HPLC analysis. All glycosylation reactions were monitored by UV (285 nm) using a Vydac C18 small pore column with a linear gradient of 0-20 percent acetonitrile in water with 0.1 percent trifluoracetic acid. The molecular weight of new products was analyzed by Maldi-TOF mass spectrometry using a Perseptive Biosystems Voyager-DE STR mass spectrometer.
# All reactions were carried out with 1 mM vancomycin aglycone as the acceptor substrate. […] Each experiment was performed in duplicate or triplicate.
# [3] = molecular target: thymidylyltransferase (rmlA-encoded Ep) (Salmonella typhimurium, UniProt P26393); conditions: Lindquist et al. 1993, cited from earlier work
# [4] = read-out: Km, forward direction
# Chain of thymidylyltransferase (rmlA-encoded Ep) (P26393 whole entry): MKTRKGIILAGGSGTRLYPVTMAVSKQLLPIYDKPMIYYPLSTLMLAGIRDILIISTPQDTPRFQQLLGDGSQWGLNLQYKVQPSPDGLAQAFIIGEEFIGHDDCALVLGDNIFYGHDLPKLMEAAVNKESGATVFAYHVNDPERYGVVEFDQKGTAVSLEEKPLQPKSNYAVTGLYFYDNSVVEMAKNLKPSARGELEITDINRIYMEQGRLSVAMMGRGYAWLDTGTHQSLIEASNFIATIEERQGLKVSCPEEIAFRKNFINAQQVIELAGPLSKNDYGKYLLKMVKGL
Compound,Km [2] [µM],kcat [2] [s⁻¹],also measured
"CCN[C@H]1CO[C@@H](O[C@H]2[C@H](O[C@H]3C#CC=CC#C[C@@]4(O)CC(=O)C(NC(=O)OC)=C3/C4=C\CSSSC)O[C@H](C)[C@@H](NO[C@H]3C[C@H](O)[C@H](SC(=O)c4c(C)c(I)c(O[C@@H]5O[C@@H](C)[C@H](O)[C@@H](OC)[C@H]5O)c(OC)c4OC)[C@@H](C)O3)[C@@H]2O)C[C@@H]1OC (stereo in doubt) [calicheamicin, calicheamicin γ1^I]",,,affinity (DNA binding) [1]: 10^6-10^8
"Cc1cn(C2CC(O)C(COP(=O)(O)OP(=O)(O)OC3OC(CO)C(O)C(N)C3O)O2)c(=O)[nH]c1=O [TDP-3-NH2-glucose, Thymidine 5′-(3-amino-3-deoxy-α-D-glucopyranosyl diphosphate)]",720 ± 60,0.06 ± 0.0033,
"Cc1cn([C@H]2C[C@H](O)[C@@H](COP(=O)(O)OP(=O)(O)O[C@H]3O[C@H](CO)[C@@H](N)[C@H](O)[C@H]3O)O2)c(=O)[nH]c1=O [TDP-4-NH2-glucose, Thymidine 5′-(4-amino-4-deoxy-α-D-glucopyranosyl diphosphate)]",1100 ± 100,0.0217 ± 0.0017,
"Cc1cn([C@H]2C[C@H](O)[C@@H](COP(=O)(O)OP(=O)(O)O[C@H]3O[C@H](CO)[C@@H](O)[C@H](O)[C@H]3O)O2)c(=O)[nH]c1=O [TDP-glucose, Thymidine 5′-(α-D-glucopyranosyl diphosphate), reference compound]",620 ± 90,0.483 ± 0.033,"Km ([3]; read-out: Km, reverse reaction): 83 µM"
"NC1C(OP(=O)(O)OP(=O)(O)OCC2OC(n3ccc(=O)[nH]c3=O)C(O)C2O)OC(CO)C(O)C1O [UDP-2-NH2-glucose, Uridine 5′-(2-amino-2-deoxy-α-D-glucopyranosyl diphosphate)]",790 ± 80,0.045 ± 0.0033,
[N-]=[N+]=NC1C(OP(=O)(O)OP(=O)(O)OCC2OC(n3ccc(=O)[nH]c3=O)C(O)C2O)OC(CO)C(O)C1O (centres unmarked) [UDP-2-azido-glucose],,,recognition / transfer of the sugar by GtfE [2]: inadequate for transfer
O=c1ccn(C2OC(COP(=O)(O)OP(=O)(O)OC3OC(CO)C(O)C(O)C3F)C(O)C2O)c(=O)[nH]1 (centres unmarked) [UDP-2-fluoro-glucose],,,recognition / transfer of the sugar by GtfE [2]: inadequate for transfer; also recorded: not recognized
"O=c1ccn([C@@H]2O[C@H](COP(=O)(O)OP(=O)(O)O[C@H]3O[C@H](CCl)[C@@H](O)[C@H](O)[C@H]3O)[C@@H](O)[C@H]2O)c(=O)[nH]1 [UDP-6-Cl-glucose, UDP-6-chloro-glucose]",21000 ± 6000,0.005 ± 0.0017,catalytic efficiency relative to native substrate [2]: less than 0.1%
"NC[C@H]1O[C@H](OP(=O)(O)OP(=O)(O)OC[C@H]2O[C@@H](n3ccc(=O)[nH]c3=O)[C@H](O)[C@@H]2O)[C@H](O)[C@@H](O)[C@@H]1O [UDP-6-NH2-glucose, Uridine 5′-(6-amino-6-deoxy-α-D-glucopyranosyl diphosphate)]",1200 ± 200,0.025 ± 0.0033,
[N-]=[N+]=NCC1OC(OP(=O)(O)OP(=O)(O)OC[C@H]2O[C@@H](n3ccc(=O)[nH]c3=O)[C@H](O)[C@@H]2O)C(O)C(O)C1O (some centres unmarked) [UDP-6-azido-glucose],,,recognition / transfer of the sugar by GtfE [2]: inadequate for transfer
"O=C[C@H](O)[C@@H](O)[C@H](O)CO [UDP-xylose, UDP xylose, reference compound]",,,catalytic efficiency relative to native substrate [2]: about 10%
Cc1cn([C@H]2C[C@H](O)[C@@H](COP(=O)(O)OP(=O)(O)OP(=O)(O)O)O2)c(=O)[nH]c1=O [dTTP],,,"Km [3, 4]: 20 µM"
O=P(O)(O)OP(=O)(O)O [diphosphate],,,"Km ([3]; read-out: Km, reverse reaction): 150 µM"
O=P(O)(O)O[C@H]1O[C@H](CO)[C@@H](O)[C@H](O)[C@H]1O [α-D-glucose-1-phosphate],,,"Km [3, 4]: 110 µM"
TDP-2-fluoro-glucose,,,recognition / transfer of the sugar by GtfE [2]: not detectably processed
